{"source": "patent US20130150551A1", "about": "“PROCESSES FOR THE PRODUCTION OF HYDROGENATED PRODUCTS AND DERIVATIVES THEREOF” (BIOAMBER S.A.S., priority 2010, published 2013)", "origin": "cited, not measured here", "conditions": "first acid group", "data": [{"smiles": "O=C(O)CCCCC(=O)O", "note": "[AA, adipic acid]", "values": [{"measurement": "pKa1", "value": 4.43}]}]}
